Measured values published in patent US11999794B2, “Human mesothelin chimeric antigen receptors and uses thereof” (Novartis AG, priority 2013, dated 2024).
Marks after values point to notes of the source that are not given here.

What was measured:
Type in all cases: in vivo, human
[1] = test system: H1N1 A/California/07/2009, H3N2 A/Victoria/210/2009, B/Brisbane/60/2008; assay: Serologic response to 2012 seasonal influenza vaccine (HI GMT ratio, primary endpoint); details: for primary endpoint (≥1.2-fold GMT increase relative to placebo in 2 of 3 strains): ITT population
Description: From December 2011 to April 2012, 218 elderly volunteers were enrolled in a randomized, observer-blind, placebo-controlled trial. The subjects were randomized to treatment arms using a validated automated randomization system with a ratio of RAD001 to placebo of 5:2 in each treatment arm. The treatment arms were: • RAD001 0.5 mg daily or placebo • RAD001 5 mg weekly or placebo • RAD001 20 mg weekly or placebo
(§1) The trial was observer-blind because the placebo in the RAD001 0.5 mg daily and 20 mg weekly cohorts differed slightly from the RAD001 tablets in those cohorts. […] The treatment duration for all cohorts was 6 weeks during which time subjects underwent safety evaluations in the clinic every 2 weeks. After subjects had been dosed for 4 weeks, RAD001 steady state levels were measured pre-dose and at one hour post dose. After completing the 6 week course of study drug, subjects were given a 2 week drug free break to reverse any possible RAD001-induced immunosuppression, and then were given a 2012 seasonal influenza vaccination (Agrippal®, Novartis Vaccines and Diagnostics, Siena, Italy) containing the strains H1N1 A/California/07/2009, H3N2 A/Victoria/210/2009, B/Brisbane/60/2008. Four weeks after influenza vaccination, subjects had serum collected for influenza titer measurements. Antibody titers to the 3 influenza vaccine strains as well as to 2 heterologous strains (A/H1N1 strain A/New Jersey/8/76 and A/H3N2 strain A/Victoria/361/11) were measured by standard hemagglutination inhibition assay (Kendal, A P et al. (1982) Concepts and procedures for laboratory-based influenza surveillance. Atlanta: Centers for Disease Control and Prevention B17-B35). Levels of IgG and IgM specific for the A/H1N1/California/07/2009 were measured in serum samples taken before and 4 weeks after influenza vaccination as described previously (Spensieri, F. et al. (2013) Proc. Natl. Acad. Sci. USA 110:14330-14335). Results were expressed as fluorescence intensity.
The primary analysis of geometric mean titer ratios was done using a normal Bayesian regression model with non-informative priors. This model was fitted to each antibody titer on the log scale. The primary outcome in each model was the Day 84 measurement. The Day 63 measurement was included in the outcome vector. The model fitted using SAS 9.2 proc mixed with the prior statement. The covariance structure of the matrix was considered as unstructured (option type=UN). A flat prior was used. For the secondary analysis of seroconversion rates, logistic regression was used.
The ability of RAD001 to improve immune function in elderly volunteers was evaluated by measuring the serologic response to the 2012 seasonal influenza vaccine. […]

H3N2 A/Victoria/210/2009 = assay: Hemagglutination inhibition titers and seroconversion; details: for Percent of subjects with seroconversion to influenza 4 weeks after vaccination: H3N2; for GMT ratio, A/H3N2: GMT at week 4 post vaccination/GMT at baseline
Description: as §1
(§2) The ability of RAD001 to improve immune function in elderly volunteers was evaluated by measuring the serologic response to the 2012 seasonal influenza vaccine. The hemagglutination inhibition (HI) geometric mean titers (GMT) to each of the 3 influenza vaccine strains at baseline and 4 weeks after influenza vaccination are provided in Table 10. The primary analysis variable was the HI GMT ratio (4 weeks post vaccination/baseline). […] This endpoint was chosen because a 1.2-fold increase in the influenza GMT ratio induced by the MF-59 vaccine adjuvant was associated with a decrease in influenza illness (Iob, A et al. (2005) Epidemiol Infect 133:687-693).
(§3) Rates of seroconversion 4 weeks after influenza vaccination were also evaluated. Seroconversion was defined as the change from a negative pre-vaccination titer (i.e., HI titer <1:10) to post-vaccination HI titer ≥1:40 or at least 4-fold increase from a non-negative (≥1:10) pre-vaccination HI titer.

[2] = test system: H1N1 A/California/07/2009; assay: as above; details: for Percent of subjects with seroconversion to influenza 4 weeks after vaccination: H1N1; for GMT ratio, A/H1N1: GMT at week 4 post vaccination/GMT at baseline
Description: as §1, §2, §3

B/Brisbane/60/2008 = assay: as above; details: for Percent of subjects with seroconversion to influenza 4 weeks after vaccination: B; for GMT ratio, B: GMT at week 4 post vaccination/GMT at baseline
Description: as §1, §2, §3

[3] = Intention to Treat Population, 0.5 mg, N = 48
[4] = Intention to Treat Population, 5 mg, N = 49
[5] = Intention to Treat Population, 20 mg, N = 48
[6] = Subjects with Baseline Titers <=40, 0.5 mg
[7] = Subjects with Baseline Titers <=40, 5 mg
[8] = Subjects with Baseline Titers <=40, 20 mg

Structure (SMILES): CO[C@H]1C[C@@H]2CC[C@@H](C)[C@@](O)(O2)C(=O)C(=O)N2CCCC[C@H]2C(=O)O[C@H]([C@H](C)C[C@@H]2CC[C@@H](OCCO)[C@H](OC)C2)CC(=O)[C@H](C)/C=C(\C)[C@@H](O)[C@@H](OC)C(=O)[C@H](C)C[C@H](C)/C=C/C=C/C=C/1C [RAD001, (1R,9S,12S,15R,16E,18R,19R,21R,23 S,24E,26E,28E,30S,32S,35R)-1,18-dihydroxy-12-{(1R)-2-[(1 S,3R,4R)-4-(2-hydroxyethoxy)-3-methoxycyclohexyl]-1-methylethyl}-19,30-dimethoxy-15,17,21,23,29,35-hexamethyl-11,36-dioxa-4-aza-tricyclo[30.3.1.04,9]hexatriaconta-16,24,26,28-tetraene-2,3,10,14,20-pentaone]
- primary endpoint (≥1.2-fold GMT increase relative to placebo in 2 of 3 strains) ([1]; 0.5 mg daily or 5 mg weekly): met the GMT primary endpoint
- primary endpoint (≥1.2-fold GMT increase relative to placebo in 2 of 3 strains) ([1]; 20 mg weekly): but not higher dose (20 mg weekly) cohort met the primary endpoint
- increase in titers in subjects with low baseline influenza titers (≤1:40) ([1]; compared with the ITT population): greater RAD001-associated increase in titers
- RAD001 concentration versus increase in titer ([1]; concentration 1 hour post dose after 4 weeks): inverse exposure/response relationship
- Percent of subjects with seroconversion to influenza 4 weeks after vaccination (H3N2 A/Victoria/210/2009; [3]): 27%
- Percent of subjects with seroconversion to influenza 4 weeks after vaccination (H3N2 A/Victoria/210/2009; [4]): 24%
- Percent of subjects with seroconversion to influenza 4 weeks after vaccination (H3N2 A/Victoria/210/2009; [5]): 25%
- Percent of subjects with seroconversion to influenza 4 weeks after vaccination (H3N2 A/Victoria/210/2009; [6]): 64%
- Percent of subjects with seroconversion to influenza 4 weeks after vaccination (H3N2 A/Victoria/210/2009; [7]): 53%
- Percent of subjects with seroconversion to influenza 4 weeks after vaccination (H3N2 A/Victoria/210/2009; [8]): 71%
- GMT ratio, A/H3N2 (H3N2 A/Victoria/210/2009; RAD001 5 mg weekly, N = 49): 2.0
- GMT ratio, A/H3N2 (H3N2 A/Victoria/210/2009; RAD001 20 mg weekly, N = 49): 2.1
- Percent of subjects with seroconversion to influenza 4 weeks after vaccination [2, 3]: 27%
- Percent of subjects with seroconversion to influenza 4 weeks after vaccination [2, 4]: 27%
- Percent of subjects with seroconversion to influenza 4 weeks after vaccination [2, 5]: 17%
- Percent of subjects with seroconversion to influenza 4 weeks after vaccination [2, 6]: 42%
- Percent of subjects with seroconversion to influenza 4 weeks after vaccination [2, 7]: 45%
- Percent of subjects with seroconversion to influenza 4 weeks after vaccination [2, 8]: 36%
- GMT ratio, A/H1N1 ([2]; RAD001 5 mg weekly, N = 49): 2.5
- GMT ratio, A/H1N1 ([2]; RAD001 20 mg weekly, N = 49): 1.8
- Percent of subjects with seroconversion to influenza 4 weeks after vaccination (B/Brisbane/60/2008; [3]): 27%
- Percent of subjects with seroconversion to influenza 4 weeks after vaccination (B/Brisbane/60/2008; [4]): 22%
- Percent of subjects with seroconversion to influenza 4 weeks after vaccination (B/Brisbane/60/2008; [5]): 19%
- Percent of subjects with seroconversion to influenza 4 weeks after vaccination (B/Brisbane/60/2008; [6]): 40* %
- Percent of subjects with seroconversion to influenza 4 weeks after vaccination (B/Brisbane/60/2008; [7]): 33%
- Percent of subjects with seroconversion to influenza 4 weeks after vaccination (B/Brisbane/60/2008; [8]): 28%
- GMT ratio, B (B/Brisbane/60/2008; RAD001 5 mg weekly, N = 49): 2.2
- GMT ratio, B (B/Brisbane/60/2008; RAD001 20 mg weekly, N = 49): 2.1
